2 molecules from ChEMBL document CHEMBL2046397, “Design and synthesis of 5-(substituted benzylidene)thiazolidine-2,4-dione derivatives as novel tyrosinase inhibitors” (Eur J Med Chem, 2012) can be followed below.

Molecules are shown by their SMILES. Calls of active or inactive are those of the source. No cut-off for these calls is given here.

The target in data set [1] is T1, Tyrosinase (Agaricus bisporus) (UniProt O42713).
T1 sequence (whole entry): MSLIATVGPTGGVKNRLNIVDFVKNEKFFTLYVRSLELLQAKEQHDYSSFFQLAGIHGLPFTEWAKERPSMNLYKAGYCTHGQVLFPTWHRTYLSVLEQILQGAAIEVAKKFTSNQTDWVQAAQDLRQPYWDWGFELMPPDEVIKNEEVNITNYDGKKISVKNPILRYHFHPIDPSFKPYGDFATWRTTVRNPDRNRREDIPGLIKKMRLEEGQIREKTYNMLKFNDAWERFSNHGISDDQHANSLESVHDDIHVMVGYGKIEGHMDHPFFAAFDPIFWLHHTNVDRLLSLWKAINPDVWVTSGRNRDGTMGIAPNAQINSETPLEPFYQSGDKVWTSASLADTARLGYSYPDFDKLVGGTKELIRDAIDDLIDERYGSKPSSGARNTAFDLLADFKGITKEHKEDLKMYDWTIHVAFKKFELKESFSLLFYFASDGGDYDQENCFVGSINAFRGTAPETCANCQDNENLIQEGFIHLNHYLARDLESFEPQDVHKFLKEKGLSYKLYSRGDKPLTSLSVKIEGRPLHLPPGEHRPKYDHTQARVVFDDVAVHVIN
In words: Competitive inhibition of mushroom tyrosinase using L-tyrosine as substrate at 20 uM by Line-Weaver-Burk plot analysis.

Data set [2] has as its system B16. Put plainly: Cytotoxicity against mouse B16 cells at 0.1 to 10 uM after 8 hrs by MTT assay. The settings on record: b16, 8 h. The class given is cell-based. Background: Tetrazolium assays rely on reduction of a dye to a coloured formazan, in cell work by metabolically active cells.
Data set [3] concerns the target T1, Tyrosinase (Agaricus bisporus). In words: Competitive inhibition of mushroom tyrosinase using L-tyrosine as substrate at 1.25 uM by Line-Weaver-Burk plot analysis.
For data set [4] the target is unchanged. In words: Competitive inhibition of mushroom tyrosinase using L-tyrosine as substrate assessed increase in Km L-tyrosine by Line-Weaver-Burk plot analysis.
A further data set addresses T2, Tyrosinase (Agaricus bisporus, UniProt O42713).
T2 sequence (O42713 whole entry): T1 sequence (whole entry)
Put plainly: Inhibition of mushroom tyrosinase activity using L-tyrosine as substrate after 30 mins by spectrophotometric analysis.

The test system of data set [5] is B16. Put plainly: Antimelanogenic activity in mouse B16 cells assessed as inhibition of alpha-MSH-induced melanin formation after 24 hrs by spectrophotometric assay. The class given is functional, cell-based.
Data set [6] has as its target T3, Tyrosinase (Mus musculus) (UniProt P11344).
T3 sequence (whole entry): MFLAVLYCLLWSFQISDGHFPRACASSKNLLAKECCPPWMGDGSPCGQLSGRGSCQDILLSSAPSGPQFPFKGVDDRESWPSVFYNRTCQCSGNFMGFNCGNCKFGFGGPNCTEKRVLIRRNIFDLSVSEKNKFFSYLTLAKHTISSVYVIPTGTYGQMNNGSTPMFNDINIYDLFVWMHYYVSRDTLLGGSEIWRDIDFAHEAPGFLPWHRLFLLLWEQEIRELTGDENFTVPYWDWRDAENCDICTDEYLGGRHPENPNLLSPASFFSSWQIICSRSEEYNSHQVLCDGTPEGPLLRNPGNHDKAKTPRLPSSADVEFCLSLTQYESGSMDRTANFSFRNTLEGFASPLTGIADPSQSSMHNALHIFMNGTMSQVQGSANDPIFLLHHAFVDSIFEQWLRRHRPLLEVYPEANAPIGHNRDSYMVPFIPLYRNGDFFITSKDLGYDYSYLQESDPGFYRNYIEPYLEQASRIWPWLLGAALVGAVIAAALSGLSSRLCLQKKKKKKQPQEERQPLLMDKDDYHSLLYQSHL
In words: Inhibition of MSHalpha-stimulated tyrosinase activity in mouse B16 cells using L-DOPA as substrate after 24 hrs by […]. The class given is cell-based. On the technique in general: ELISA stands for enzyme-linked immunosorbent assay.

Take `O=C1NC(=O)/C(=C/c2ccc(O)cc2)S1`: the Kic is 0.84 µM in data set [1] and 3.74 ×10⁻⁷ M in data set [3]. Moreover, the Activity result in the data set with B16 [2] is “Non-toxic”. For the same molecule, the inhibition result in data set [4] and in data set [6] was “Active” in each case. This molecule showed an IC50 on Tyrosinase of 13.4 µM. In addition, in the data set on B16 [5], the inhibition result was “Dose-dependent effect”.
For `COc1ccc(/C=C2\SC(=O)NC2=O)cc1O`, the Kic turned out to be 1.38 µM in data set [1] and 4.13 ×10⁻⁷ M in data set [3]. Moreover, the Activity entry with B16 [2] is reported as “Non-toxic”. The inhibition result in data set [4] and in data set [6] was “Active” each time. At Tyrosinase, this molecule came in with an IC50 of 9.87 µM. The inhibition entry in the data set with B16 [5] is “Dose-dependent effect”.

Broadly, the IC50 is the point on the concentration scale where inhibition reaches its midpoint. A lower IC50 goes with inhibition by little substance.
